Source: US20080269298A1, “Benzimidazol-1-YL-thiophene compounds for the treatment of cancer” (priority 2002, published 2008)

Tests used:
PLK1 kinase domain = biological target: T1, PLK1 kinase domain (Homo sapiens, UniProt P53350); assay: Assay for Inhibition of PLK1 (SPA enzyme activity); format: biochemical; settings: 2 μM ATP, read-out: Ave pIC50 PLK Enzyme Inhibition (converted)
T1 construct: made in house; host or cells: baculovirus-infected T. ni insect cells

[1] = test system: lung (H460) tumor cell line; assay: Methylene Blue Growth Inhibition Assay, H460; format: cell-based; settings: Homo sapiens, NCI-H460, 72 h; Cell Line H460, 3 days; read-out: MeB IC50
Procedure: (§1) Normal Human foreskin fibroblasts (HFF) and human colon (HCT116, RKO), lung (H460), prostate (PC3), and breast tumor (MCF7) cell lines were cultured in high glucose DMEM (Life Technologies) containing 10% fetal bovine serum (FBS) at 37° C. in a humidified 10% CO2, 90% air incubator. Cells were harvested using trypsin/EDTA, counted using a haemocytometer, and plated in 100 μl of the appropriate media, at the following densities, in a 96-well tissue culture plate (Falcon 3075): HFF 5,000 cells/well, HCT116 3,000 cells/well, RKO 2,500 cells/well, H460 2,000 cells/well, PC3 8,000 cells/well, MCF7 4,000 cells/well. The next day, compounds were diluted in DMEM containing 100 μg/ml gentamicin, at twice the final required concentration, from 10 mM stock solutions in DMSO. 100μ/well of these dilutions were added to the 100 μl of media currently on the cell plates. Medium containing 0.6% DMSO was added to control wells. Compounds diluted in DMEM were added to all cell lines. The final concentration of DMSO in all wells was 0.3%. Cells were incubated at 37° C., 10% CO2 for 3 days. Medium was removed by aspiration. Cell biomass was estimated by staining cells with […] per well methylene blue (Sigma M9140, 0.5% in 50:50 ethanol:water), and incubation at room temperature for at least 30 minutes. Stain was removed, and the plates rinsed under a gentle stream of water, and air-dried. To release stain from the cells 100 μl of solubilization solution was added (1% N-lauroyl sarcosine, Sodium salt, Sigma L5125, in PBS), and plates were shaken gently for about 30 minutes. Optical density at 620 nm was measured on a microplate reader. Percent inhibition of cell growth was calculated relative to vehicle treated control wells. Concentration of compound that inhibits 50% of cell growth (IC50) was interpolated using nonlinear regression (Levenberg-Marquardt) and the equation, y=Vmax*(1-(x/(K+x)))+Y2, where “K” was equal to the IC50. In Table 1, +=10−>30 uM; ++=1−10 uM: +++=<1 uM.

[2] = test system: colon (HCT116) tumor cell line; assay: Methylene Blue Growth Inhibition Assay, HCT116; format: cell-based; settings: Homo sapiens, HCT-116, 72 h; Cell Line HCT116, 3 days; read-out: MeB IC50
Procedure: as §1

[3] = test system: Normal Human foreskin fibroblasts (HFF); assay: Methylene Blue Growth Inhibition Assay, HFF; format: cell-based; settings: 72 h, Cell Line HFF, 3 days, read-out: MeB IC50
Procedure: as §1

[4] = test system: breast tumor (MCF7) cell line; assay: Methylene Blue Growth Inhibition Assay, MCF7; format: cell-based; settings: Homo sapiens, 72 h; Cell Line MCF7, 3 days; read-out: MeB IC50
Procedure: as §1

[5] = test system: prostate (PC3) tumor cell line; assay: Methylene Blue Growth Inhibition Assay, PC3; format: cell-based; settings: Homo sapiens, 72 h; Cell Line PC3, 3 days; read-out: MeB IC50
Procedure: as §1

[6] = test system: colon (RKO) tumor cell line; assay: Methylene Blue Growth Inhibition Assay, RKO; format: cell-based; settings: Homo sapiens, 72 h, 3 days, read-out: MeB IC50
Procedure: as §1

T1 sequence (P53350 21-346): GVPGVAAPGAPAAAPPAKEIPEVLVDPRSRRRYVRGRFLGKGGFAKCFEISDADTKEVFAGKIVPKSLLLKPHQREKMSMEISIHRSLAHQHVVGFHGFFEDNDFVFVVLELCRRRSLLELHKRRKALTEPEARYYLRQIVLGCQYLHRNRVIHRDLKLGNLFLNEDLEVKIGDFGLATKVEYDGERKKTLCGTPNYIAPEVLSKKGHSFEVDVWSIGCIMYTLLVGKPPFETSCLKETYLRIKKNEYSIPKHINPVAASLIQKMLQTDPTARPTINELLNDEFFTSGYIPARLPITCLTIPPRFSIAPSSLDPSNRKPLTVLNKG

Row | SMILES | IC50 (PLK1 kinase domain) [µM] | IC50 [1] [µM] | IC50 [2] [µM] | IC50 [4] [µM] | IC50 [5] [µM] | IC50 [6] [µM] | IC50 [3] [µM]
1 | COc1cc2ncn(-c3cc(OCc4ccnc(N)c4)c(C(N)=O)s3)c2cc1OC [Example 100, 3-[(2-Aminopyridin-4-yl)methoxy]-5-(5,6-dimethoxy-1H-benzimidazol-1-yl)thiophene-2-carboxamide] | < 0.1 | > 10 | > 10 | > 10 | > 10 | > 10 | > 10
2 | COc1cc2ncn(-c3cc(OCc4ccccc4C(C)=O)c(C(N)=O)s3)c2cc1OC [Example 105, 3-[(2-Acetylbenzyl)oxy]-5-(5,6-dimethoxy-1H-benzimidazol-1-yl)thiophene-2-carboxamide] | < 0.1 | 1 to 10 | 1 to 10 | 1 to 10 | > 10 | 1 to 10 | > 10
3 | C#Cc1ccccc1COc1cc(-n2cnc3cc(OC)c(OC)cc32)sc1C(N)=O [Example 106, 5-(5,6-Dimethoxy-1H-benzimidazol-1-yl)-3-[(2-ethynylbenzyl)oxy]thiophene-2-carboxamide] | < 0.1 | 1 to 10 | 1 to 10 | 1 to 10 | > 10 | 1 to 10 | > 10
4 | COc1cc2ncn(-c3cc(OCc4ccccc4C(O)CO)c(C(N)=O)s3)c2cc1OC (stereo not drawn) [Example 109] | 0.1 to 10 | > 10 | > 10 | > 10 | > 10 | > 10 | > 10
5 | COc1cc2ncn(-c3cc(OCc4ccccc4C=O)c(C(N)=O)s3)c2cc1OC [Example 110, 5-(5,6-Dimethoxy-1H-benzimidazol-1-yl)-3-[(2-formylbenzyl)oxy]thiophene-2-carboxamide] | < 0.1 | 1 to 10 | < 1 | 1 to 10 | 1 to 10 | < 1 | > 10
6 | COc1cc2ncn(-c3cc(OCC4CCCCO4)c(C(N)=O)s3)c2cc1OC (stereo not drawn) [Example 112, 5-(5,6-Dimethoxy-1H-benzimidazol-1-yl)-3-(tetrahydro-2H-pyran-2-ylmethoxy)thiophene-2-carboxamide] | 0.1 to 10 | 1 to 10 | > 10 | > 10 | > 10 | 1 to 10 | > 10
7 | COc1cc2ncn(-c3cc(OCCN4CCOCC4)c(C(N)=O)s3)c2cc1OC [Example 113, 5-(5,6-Dimethoxy-1H-benzimidazol-1-yl)-3-(2-morpholin-4-ylethoxy)thiophene-2-carboxamide] | 0.1 to 10 | > 10 | > 10 | > 10 | > 10 | > 10 | > 10
8 | NC(=O)c1sc(-n2cnc3ccc(C(F)(F)F)cc32)cc1OCc1ccccc1Br [Example 119, 3-[(2-Bromobenzyl)oxy]-5-[6-(trifluoromethyl)-1H-benzimidazol-1-yl]thiophene-2-carboxamide] | < 0.1 | 1 to 10 | 1 to 10 | 1 to 10 | > 10 | 1 to 10 | > 10
9 | CS(=O)(=O)Nc1ccc2ncn(-c3cc(OCc4ccccc4C(F)(F)F)c(C(N)=O)s3)c2c1 [Example 122, 5-{6-[(Methylsulfonyl)amino]-1H-benzimidazol-1-yl}-3-{[2-(trifluoromethyl)benzyl]-oxy}thiophene-2-carboxamide] | < 0.1 | 1 to 10 | 1 to 10 | 1 to 10 | > 10 | 1 to 10 | > 10
10 | NC(=O)c1sc(-n2cnc3cc4c(cc32)OCCO4)cc1OCc1ccccc1C(F)(F)F [Example 123, 5-(6,7-Dihydro-1H-[1,4]dioxino[2,3f]benzimidazol-1-yl)-3-{[2-(trifluoromethyl)benzyl]-oxy}thiophene-2-carboxamide] | < 0.1 | 1 to 10 | 1 to 10 | 1 to 10 | > 10 | 1 to 10 | 1 to 10

Further lines, with some results ahead:

Row | IC50 (PLK1 kinase domain) [µM] | IC50 [1] [µM] | IC50 [2] [µM] | IC50 [4] [µM] | IC50 [5] [µM] | IC50 [6] [µM] | SMILES | IC50 [3] [µM]
11 | < 0.1 | 1 to 10 | 1 to 10 | 1 to 10 | > 10 | 1 to 10 | COc1cc2ncn(-c3cc(OCc4cccc(N)c4)c(C(N)=O)s3)c2cc1OC [Example 96, 3-[(3-Aminobenzyl)oxy]-5-(5,6-dimethoxy-1H-benzimidazol-1-yl)thiophene-2-carboxamide] | > 10
12 | < 0.1 | 1 to 10 | 1 to 10 | 1 to 10 | 1 to 10 | 1 to 10 | COc1cc2ncn(-c3cc(OCc4ccccc4SC)c(C(N)=O)s3)c2cc1OC [Example 97] | 1 to 10
13 | 0.1 to 10 | 1 to 10 | 1 to 10 | 1 to 10 | 1 to 10 | 1 to 10 | COc1cc2ncn(-c3cc(OCc4ccccc4[S+](C)[O-])c(C(N)=O)s3)c2cc1OC (stereo not drawn) [Example 98, 5-(5,6-Dimethoxy-1H-benzimidazol-1-yl)-3-{[2-(methylsulfinyl)benzyl]oxy}thiophene-2-carboxamide] | > 10
14 | < 0.1 | 1 to 10 | 1 to 10 | 1 to 10 | > 10 | 1 to 10 | COc1cc2ncn(-c3cc(OCc4ccccc4S(C)(=O)=O)c(C(N)=O)s3)c2cc1OC [Example 99, 5-(5,6-Dimethoxy-1H-benzimidazol-1-yl)-3-{[2-(methylsulfonyl)benzyl]oxy}thiophene-2-carboxamide] | > 10
15 | < 0.1 | 1 to 10 | 1 to 10 | 1 to 10 | > 10 | 1 to 10 | C=Cc1ccccc1COc1cc(-n2cnc3cc(OC)c(OC)cc32)sc1C(N)=O [Example 103, 5-(5,6-Dimethoxy-1H-benzimidazol-1-yl)-3-[(2-vinylbenzyl)oxy]thiophene-2-carboxamide] | > 10
16 | < 0.1 | 1 to 10 | 1 to 10 | 1 to 10 | > 10 | 1 to 10 | COc1cc2ncn(-c3cc(OCc4ccc(C(N)=O)cc4)c(C(N)=O)s3)c2cc1OC [Example 104, 3-{[4-(Aminocarbonyl)benzyl]oxy}-5-(5,6-dimethoxy-1H-benzimidazol-1-yl)thiophene-2-carboxamide] | > 10
17 | < 0.1 | < 1 | < 1 | < 1 | 1 to 10 | < 1 | NC(=O)c1sc(-n2cnc3ccccc32)cc1OCc1ccccc1[N+](=O)[O-] [Example 117, 5-(1H-Benzimidazol-1-yl)-3-[(2-nitrobenzyl)oxy]thiophene-2-carboxamide] | > 10
18 | < 0.1 | < 1 | 1 to 10 | < 1 | > 10 | < 1 | COc1ccc2ncn(-c3cc(OCc4ccccc4C(F)(F)F)c(C(N)=O)s3)c2c1 [Example 118] | 1 to 10
